We go through ten molecules from patent US10750743B2, “Pyridazinone herbicides” (E.I. DU PONT DE NEMOURS AND COMPANY, priority 2015, dated 2020).

In series [1] the test system is wheat (Triticum aestivum). The experiment in a line: Test A postemergence application, visual injury rating. The format is in vivo. The note with it: for plant injury at 125 g/ha / plant injury at 500 g/ha: Triticum aestivum, post-emergence, 240 h, 0 to 100 scale, 0 no effect, 100 complete control, read-out: Wheat plant response rating; for plant injury at 125 g/ha: 125 g ai/ha; for plant injury at 500 g/ha: 500 g ai/ha; for Plant response rating (0 to 100 scale), Wheat: 31 g ai/ha, 0 is no effect, 100 is complete control. In short, it runs like this: (§1)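 Seeds sown in a loam soil–sand blend received a directed preemergence soil spray of test chemical in a non-phytotoxic solvent mixture with surfactant. Postemergence plants were sprayed at 2 to 10 cm, one- to two-leaf stage. After approximately 10 d in greenhouse, injury was visually rated 0 (no effect) to 100 (complete control) against untreated controls.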

Series [2] relates to blackgrass (Alopecurus myosuroides). The series is described as above. Particulars: Alopecurus myosuroides, post-emergence, 240 h, 0 to 100 scale, 0 no effect, 100 complete control, read-out: Blackgrass plant response rating; for pest or weed control at 125 g/ha: 125 g ai/ha; for pest or weed control at 500 g/ha: 500 g ai/ha; for pest or weed control at 31 g/ha: 31 g ai/ha. It is filed as in vivo. The method in brief:
as §1

On to `Cc1cc2ccc(C)c(-c3c(O)c(C)nn(C)c3=O)c2o1` [Compound 10, 4-(2,6-dimethyl-7-benzofuranyl)-5-hydroxy-2,6-dimethyl-3(2H)-pyridazinone], for which the melting point (commonly the temperature, or range, at which the solid turns liquid) was in the range of 194 to 199 °C. In series [1], the plant injury at 125 g/ha was found to be 20% and the plant injury at 500 g/ha came out at 60%. In addition, in series [2], the pest or weed control at 125 g/ha came to 60% and the pest or weed control at 500 g/ha came to 90%.
Molecule `CC(=O)Oc1c(C)nn(C)c(=O)c1-c1c(C)ccc2cc(C)oc12` [Compound 11, 5-(acetyloxy)-4-(2,6-dimethyl-7-benzofuranyl)-2,6-dimethyl-3(2H)-pyridazinone] returned a melting point of 93 to 96 °C. Moreover, in series [1], the plant injury at 125 g/ha was found to be 0% and the plant injury at 500 g/ha came out at 40%. Moreover, in series [2], the pest or weed control at 125 g/ha is 60% and the pest or weed control at 500 g/ha was determined as 90%.
On to `Cc1cc2cccc(-c3c(O)c(C)nn(C)c3=O)c2o1` [Compound 12, 5-hydroxy-2,6-dimethyl-4-(2-methyl-7-benzofuranyl)-3(2H)-pyridazinone], for which, in series [1], the plant injury at 125 g/ha is 0% and the plant injury at 500 g/ha was 20%. Further, in series [2], the pest or weed control at 125 g/ha stood at 40% and the pest or weed control at 500 g/ha came to 80%.
On to `CC(=O)Oc1c(C)nn(C)c(=O)c1-c1cccc2cc(C)oc12` [Compound 13, 5-(acetyloxy)-2,6-dimethyl-4-(2-methyl-7-benzofuranyl)-3 (2H)-pyridazinone], for which, in series [1], the plant injury at 125 g/ha came out at 0% and the plant injury at 500 g/ha worked out at 20%. For the same molecule, in series [2], the pest or weed control at 125 g/ha is 60% and the pest or weed control at 500 g/ha came out at 80%.
`Cc1nn(C)c(=O)c(-c2cccc3snc(C)c23)c1O` [Compound 25, 5-hydroxy-2,6-dimethyl-4-(3-methyl-1,2-benzisothiazol-4-yl)-3 (2H)-pyridazinone] gave a melting point of 115 to 118 °C. Further, in series [1], the plant injury at 125 g/ha was found to be 20% and the plant injury at 500 g/ha amounted to 30%. In series [2], the pest or weed control at 125 g/ha was found to be 20% and the pest or weed control at 500 g/ha worked out at 30%.
Regarding `Cc1ccc2sccc2c1-c1c(O)c(C)nn(C)c1=O` [Compound 29, 5-hydroxy-2,6-dimethyl-4-(5-methylbenzo[b]thien-4-yl)-3(2H)-pyridazinone], in series [1], the plant injury at 125 g/ha is 20% and the plant injury at 500 g/ha worked out at 30%. Further, in series [2], the pest or weed control at 125 g/ha came to 70% and the pest or weed control at 500 g/ha was found to be 80%.
On to `CCOC(=O)Oc1c(C)nn(C)c(=O)c1-c1c(C)ccc2sccc12` [Compound 30, 1,6-dihydro-1,3-dimethyl-5-(5-methylbenzo[b]thien-4-yl)-6-oxo-4-pyridazinyl ethyl carbonate], for which the melting point lay within 103 to 107 °C. Moreover, in series [1], the plant injury at 125 g/ha came to 0% and the plant injury at 500 g/ha is 30%. Also, in series [2], the pest or weed control at 125 g/ha stood at 40% and the pest or weed control at 500 g/ha was 90%.
With `Cn1nc(Cl)c(O)c(-c2nccc3ccccc23)c1=O` [Compound 67, 6-chloro-5-hydroxy-4-(1-isoquinolinyl)-2-methyl-3(2H)-pyridazinone], in series [1], the “Plant response rating (0 to 100 scale), Wheat” value (“Plant response rating” below) was 0 and the plant injury at 125 g/ha worked out at 0%. Also, in series [2], the pest or weed control at 31 g/ha is 0% and the pest or weed control at 125 g/ha came out at 0%.
Take `Cc1nn(C)c(=O)c(-c2ccc(F)c3ccoc23)c1O` [Compound 68, 4-(4-fluoro-7-benzofuranyl)-5-hydroxy-2,6-dimethyl-3(2H)-pyridazinone]: in series [1], the “Plant response rating” value stood at 0 and the plant injury at 125 g/ha was determined as 0%. In series [2], the pest or weed control at 31 g/ha was 0% and the pest or weed control at 125 g/ha was found to be 60%.
On to `COc1c(C)nn(C)c(=O)c1-c1ccc(F)c2ccoc12` [Compound 69, 4-(4-fluoro-7-benzofuranyl)-5-methoxy-2,6-dimethyl-3(2H)-pyridazinone], for which, in series [1], the “Plant response rating” value turned out to be 0 and the plant injury at 125 g/ha worked out at 0%. Moreover, in series [2], the pest or weed control at 31 g/ha was 0% and the pest or weed control at 125 g/ha came to 0%.
